The term solubility denotes the dissolved amount per volume that the medium holds. A lower solubility goes with a poorly soluble substance.

Molecules are shown by their SMILES. In brackets after ≈: the same amount, converted by molar mass.

The values below come from patent US12459917B2, “Salt of diaminopyrimidine compounds, and solid form thereof, preparation method therefor and use thereof” (BEIJING TIDE PHARMACEUTICAL CO., LTD., priority 2019, dated 2025).

A short description of this data set: Solubility test in FaSSIF at 37° C. Format: physicochemical. Particulars: FaSSIF (Fasted State Simulated Intestinal Fluid), thermodynamic from solid. The source says:
Experimental Example 3: Solubility Test

Molecule `C#Cc1cc(Oc2cnc(N)nc2N)c(C(C)C)cn1` [Free base, 5-((2-ethynyl-5-isopropylpyridin-4-yl)oxy)pyrimidine-2,4-diamine] showed a solubility at 30 min (30 min) of 80 µg/mL (≈ 297 µM). Also, the solubility at 2 h (2 h) is 80 µg/mL (≈ 297 µM). The solubility at 24 h (24 h) was 110 µg/mL (≈ 408 µM).
